According to US11220689B2, “Modulators of telomere disease” (Children's Medical Center Corporation, priority 2015, dated 2022):

Tests used:
[1] = test system: PARN; experiment: CRISPR/Cas9 genome targeting of PARN in normal (WT) iPSCs, lentiviral gRNA; assay type: cell-based, human
Procedure: (§1) Experiments were performed to determine the requirement of PARN and PAPD5 for viability and function of human stem cells. CRISPR/Cas9 genome targeting was performed to create biallelic null mutations. Lentiviral vectors containing guide RNAs (gRNAs; Table 15) to PARN or PAPD5 were designed and used to transduce normal (WT) and PARN mutant induced pluripotent stems (iPSCs), and the frequency of insertion/deletions (indels) were assessed. […] Populations of stable lentiviral transduced PARN or PAPD5 targeted iPSCs were subcloned to identify lines with biallelic inactivation of PARN or PAPD5. […] In contrast, iPSCs with indels causing frameshifts in PAPD5 and lacking PAPD5 protein could be isolated (FIG. 23). Inactivation of PAPD5 by CRISPR/Cas9 augmented TERC levels in iPSC clones (FIG. 24).

[2] = biological target: recombinant PAPD5 (Homo sapiens, UniProt Q8NDF8); experiment: Inhibition of recombinant PAPD5 by aminoglycosides; assay type: biochemical; details: 10 μM each; FIG. 26
Sequence of recombinant PAPD5 (Q8NDF8 whole entry): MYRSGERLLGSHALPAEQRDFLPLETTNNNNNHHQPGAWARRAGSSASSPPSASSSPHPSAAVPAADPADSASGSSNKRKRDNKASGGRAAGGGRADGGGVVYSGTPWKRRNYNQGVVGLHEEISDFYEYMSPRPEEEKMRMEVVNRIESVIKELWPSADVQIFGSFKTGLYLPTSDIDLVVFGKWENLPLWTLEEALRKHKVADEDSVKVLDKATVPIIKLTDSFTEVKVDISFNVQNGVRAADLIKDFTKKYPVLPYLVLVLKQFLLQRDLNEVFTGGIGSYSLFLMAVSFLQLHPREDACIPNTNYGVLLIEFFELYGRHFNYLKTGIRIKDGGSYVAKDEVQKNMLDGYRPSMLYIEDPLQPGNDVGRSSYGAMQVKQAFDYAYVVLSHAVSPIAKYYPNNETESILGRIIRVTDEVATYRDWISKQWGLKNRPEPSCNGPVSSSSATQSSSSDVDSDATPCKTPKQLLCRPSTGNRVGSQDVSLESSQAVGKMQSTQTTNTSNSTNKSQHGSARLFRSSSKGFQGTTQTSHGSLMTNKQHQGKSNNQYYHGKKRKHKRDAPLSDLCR
Procedure: FIG. 26 is a graph showing inhibition of recombinant PAPD5 by aminoglycosides.
Experiments were performed to determine whether aminoglycosides can be used to inhibit PAPD5. 10 μM each of the following are used, (1) Kanamycin B sulfate; (2) Apramycin sulfate; (3) Spectinomycin dihydrochloride pentahydrate; and (4) Ribostamycin sulfate.

[3] = test system: human PAPD5; experiment: PAPD5 shRNA knockdown in PARN deficient HEK 293 cells: 3' RACE deep sequencing and Northern blot of TERC; assay type: cell-based; details: Northern blot, normal and PARN deficient HEK 293 cells, FIG. 11G, FIG. 18
Excerpt: short-hairpin RNA (shRNA) constructs. Duplex oligonucleotides encoding shRNA targeting human PAPD5 (ENA accession: FR872509) or luciferase control (Table 13) were cloned into the pLKO.1-puro vector and pLKO.1-blast vectors (Addgene #10878 and #26655). shRNA constructs targeting human PARN (NM_002582) were as described, e.g., in Moon, Diane H., et al. “Poly (A)-specific ribonuclease (PARN) mediates 3 [prime]-end maturation of the telomerase RNA component.” Nature genetics 47.12 (2015): 1482-1488.
Viral vector production and transduction. […]. Lentiviral particles were produced by co-transfection of HEK 293T cells with lentiviral vectors, pCMV_dR8.91 and pCMV_VSV-G. For knockdown and overexpression experiments, HEK 293 cells, fibroblasts and iPSCs were transduced with viral vectors in the presence of protamine sulfate (10 μg/ml) for 8-12 hours. For TERC and DKC1 experiments, transduced HEK 293 cells and fibroblasts were sorted for mCherry or EGFP expression and cultured without further selection. […]
Formaldehyde/agarose gel electrophoresis. […] Quantification was performed using ImageJ. […]
TERC RNA 3′ ends were profiled as described in e.g., Moon, Diane H., et al. “Poly (A)-specific ribonuclease (PARN) mediates 3 [prime]-end maturation of the telomerase RNA component.” Nature genetics 47.12 (2015): 1482-1488. […] Reads mapping to the TERC gene were analyzed using custom developed Perl scripts.

[4] = test system: human TRF4-2; experiment: Lentiviral shRNA knockdown of TRF4-2 (PAPD5) in fibroblasts and patient-derived cells; assay type: cell-based
Excerpt: Short-hairpin RNA (shRNA) constructs. Duplex oligonucleotides encoding shRNA targeting human TRF4-2 (ENA accession number: FR872509) and human PARN (NM_002582) or luciferase control (Table 6) were cloned into the pLKO.1-puro vector (Addgene #10878), and pLKO.1-blast vector (Addgene #26655). Lentiviral vector production and transduction of cells.
Lentiviral vectors encoding shRNAs were produced by co-transfection of 293 cells with lentiviral plasmids described above, pCMV_dR8.91 and pCMV_VSV-G, using branched polyethylenimine (Sigma). Supernatants were harvested, filtered and frozen in aliquots on days 3-4 following transfection. For knockdown experiments, cells were transduced with lentivirus and harvested 6 days after selection in puromycin (2 μg/ml for 293 cells; 0.2 μg/ml for iPS cells) or blasticidin (10 μg/ml for 293 cells).

[5] = test system: PAPD5; experiment: CRISPR/Cas9 genome targeting of PAPD5 in PARN mutant iPSCs, lentiviral gRNA; assay type: cell-based, human
Procedure: as §1

[6] = test system: human PARN; experiment: PARN shRNA knockdown in 293 cells: 3' RACE and deep sequencing of TERC 3' ends; assay type: cell-based; details: versus control shRNA, FIG. 8
Procedure: 600 ng of total RNA was ligated to 5 μM of 5′-adenylated, 3′-blocked adapter (Universal miRNA cloning linker, New England Biolabs, Ipswich, Mass.) with 280 units of T4 RNA ligase truncated KQ (New England Biolabs, Ipswich, Mass.), 25% PEG 8000, and 1 μl RNaseOUT (Life Technologies, Carlsbad, Calif.) in a 20 μl reaction at 25 degrees C. for 16-24 hr. After cleanup with RNA Clean and Concentrator columns (Zymo Research, Irvine, Calif.), followed by DNase treatment, cDNA was synthesized with 5 pmol of universal RT primer and SuperScript III. […] PCR products were directly analyzed run on 2.5% agarose gels to visualize mature and extended TERC transcripts, or subject to Qiaquick PCR purification columns (Qiagen, Hilden, Germany) for library preparation for deep sequencing. […]
RACE products were prepared for deep sequencing using the TruSeq Nano DNA LT Library Prep Kit (Illumina, San Diego, Calif.). […] The quality and quantity of each library was determined on an Advanced Analytical Fragment Analyzer. […] The reads were de-multiplexed with CASAVA 1.8.2 and the read 1 and read 2 fastq files for each sample were generated. For data analysis, the Illumina adapter sequence was first removed from the end of each read using Trimmomatic50. […] The joined-reads from each sample were then mapped to the TERC gene (NR_001566; SEQ ID NO: 99) with the Bowtie2 mapper52, and outputted to a SAM file. […]

PARN gRNA 91: guide RNA targeting PARN for CRISPR/Cas9, SEQ ID NO: 94 (target + PAM), 95 (guide TGAAGTGTTAGGAGATACAT; listed as DNA, chemistry not given here)
frequency of insertion/deletions (indels) [1]: high frequency of indels | PARN RNA transcript levels ([1]; qPCR, FIG. 20A): reductions | TERC RNA levels ([1]; qPCR, FIG. 20B): reductions

CN[C@@H]1[C@H](O)[C@H](NC)[C@H]2O[C@@]3(O)C(=O)C[C@@H](C)O[C@H]3O[C@@H]2[C@H]1O.Cl.Cl.O.O.O.O.O [Spectinomycin dihydrochloride pentahydrate]
inhibition of PAPD5 [2]: can inhibit PAPD5

NC[C@H]1O[C@H](O[C@H]2[C@H](O[C@@H]3O[C@H](CO)[C@@H](O)[C@H]3O)[C@@H](O)[C@H](N)C[C@@H]2N)[C@H](N)[C@@H](O)[C@@H]1O.O=S(=O)(O)O [Ribostamycin sulfate]
inhibition of PAPD5 [2]: can inhibit PAPD5

Apramycin sulfate
inhibition of PAPD5 [2]: can inhibit PAPD5

PAPD5 shRNA1: lentivirus-encoded shRNA targeting human PAPD5, SEQ ID NO: 83 in Table 13 (CCGGCGATGTTGGAAGGAGTTCATACTCGAGTATGAACTCCTTCCAACATCGTTTTTG)
steady state levels of TERC transcripts [3]: increased | TERC levels [4]: restored the TERC levels | knock-down of PAPD5 [4]: knocked-down PAPD5 to significant levels

gRNA 451: guide RNA targeting PAPD5 for CRISPR/Cas9, SEQ ID NO: 88 (target + PAM), 89 (guide CCTCTTGTTGCTGCTGCCCG; listed as DNA, chemistry not given here)
frequency of insertion/deletions (indels) ([5]; PAPD5 gRNAs): highest frequency of indels | PAPD5 transcript levels ([5]; PARN mutant cells, qPCR, FIG. 21A): reductions | TERC RNA levels ([5]; PARN mutant cells, qPCR, FIG. 21B): increases

NC[C@H]1O[C@H](O[C@H]2[C@H](O)[C@@H](O[C@H]3O[C@H](CO)[C@@H](O)[C@H](N)[C@H]3O)[C@H](N)C[C@@H]2N)[C@H](N)[C@@H](O)[C@@H]1O.O=S(=O)(O)O [Kanamycin B sulfate]
inhibition of PAPD5 [2]: can inhibit PAPD5

PAPD5 shRNA2: lentivirus-encoded shRNA targeting human PAPD5, SEQ ID NO: 79 in Table 13 (CCGGGCCACATATAGAGATTGGATACTCGAGTATCCAATCTCTATATGTGGCTTTTTG)
steady state levels of TERC transcripts [3]: increased | TERC levels [4]: restored the TERC levels | knock-down of PAPD5 [4]: knocked-down PAPD5 to significant levels

PARN shRNA1: lentivirus-encoded shRNA directed against PARN (3' untranslated region), SEQ ID NO: 74 (DNA CCGGCCGCACTGTATTTAACTTAATCTCGAGATTAAGTTAAATACAGTGCGGTTTTTG)
levels of mature TERC [6]: diminished levels of mature TERC | oligo(A) forms of TERC [6]: increased oligo(A) forms
